Tests used:
[1] = system: CDKs; assay: DARTS assay, CDKs; type: binding, rat; details: 20 μM KP
Procedure: Cultured primary rat cortical neurons were treated with either vehicle DMSO (0.1%) or 20 μM KP for 30 h. Cells were lysed in ice-cold lysis buffer (Tris.Cl pH8 50 mM, NaCl 150 mM, NP40 0.5%, N-dodecyl-b-D-maltoside 0.5%, Phosphatase Inhibitor (Pierce #88667) and Protease Inhibitor (Roche #11836153001)). Protein concentrations were determined by Bio-Rad DC Protein Assay kit using bovine albumin as standard. All steps were performed on ice. Samples were warmed to room temperature and digested with pronase (final concentration 1:500) for 30 min at 30° C. Digestion was halted using 0.5M EDTA. Only proteins not bound to KP were digested. The protein mixture was dialyzed using dialysis cassettes (Thermo Fisher 66203, 2K MWCO) and analyzed by LC-MS/MS method to identify proteins that are bound to KP, the latter step carried out in the Duke Proteomics Core Laboratory.
A drug affinity responsive target stability (DARTS) assay (Lomenick, et al., 2009, Proc Natl Acad Sci USA 106:21984-21989) was used to study direct binding of KP to GSK3ß (FIG. 8A) in primary cortical neurons. The findings were consistent with previous reports in cell lines (Knockaert, et al., 2002, The Journal of biological chemistry 277:25493-25501) yet novel in primary neurons. […]

[2] = system: KCC2 protein; assay: KCC2 immuno-staining morphometry of spinal cord dorsal horn; type: in vivo, mouse; details: KP 10 mg/kg; nerve constriction injury and CFA inflammatory pain models
Procedure: All mice were deeply anaesthetized with isoflurane and then transcardially perfused with ice-cold 4% paraformaldehyde in 0.1 M phosphate buffer, pH 7.4 (4% PFA). Dissected spinal cord samples were then post-fixed overnight in 4% PFA at 4° C., cryoprotected in a 20% sucrose solution in PBS at 4° C., frozen in Tissue-Tek OCT (Sakura), and stored at −80° C. until sectioning. Samples were sectioned at 20 μm using a cryostat (Microm HM 505N). The sections were blocked with 2% bovine serum albumin (BSA) in PBS with 0.3% Triton X-100 (Blocking solution) at room temperature for 1 h. The sections were treated with primary antibody in blocking solution at 4° C. overnight. The sections were washed three times followed by secondary antibody treatment at 4° C. for 2 hours. Anti-KCC2 antibody was validated as described above for immuno-cytochemistry. The goat anti-rabbit IgG Alexa Fluor 488 was obtained from Invitrogen (A-11008). […]
With the aforementioned findings and in view of the SCDH as the likely site of analgesic action of KP (Coull et al., 2003, Nature 424:938-942; Gagnon et al., 2013, Nat Med 19:1524-1528), SCDH KCC2 expression and function in nerve injury and response to KP was assessed. […] SCDH KCC2 protein expression was measured morphometrically after KCC2 immunolabeling using SCDH laminae I-II as the region-of-interest (FIG. 5B).

[3] = system: EGABA; assay: Perforated patch EGABA in SCDH lamina-II neurons of treated mice; type: in vivo, mouse; details: slices of PSNL juvenile mice treated with KP 30 mg/kg
[4] = system: inflammatory pain, evoked by peripheral tissue injection of CFA; assay: CFA inflammatory pain model; type: in vivo, mouse
Procedure: For pain-related behavior, mechanical allodynia was assessed with von Frey filaments (Ugo Basile, Italy). The mice were placed on a 5×5-mm wire-mesh grid floor in individual compartments to avoid visual stimulation and allowed to adapt for 0.5 h prior to the von Frey test. The von Frey filament was then applied to the middle of the plantar surface of the hind paw with 5 g force. The withdrawal responses following the hind paw stimulation were measured at least three times, and the mechanical allodynia, which was defined as an increase in the number of withdrawal responses to the stimulation, was compared. In addition, paws were stimulated with heat from underneath applied by an infrared beam (Hargreaves' test apparatus, IR level 40; Ugo Basile), and withdrawal latencies were recorded. […] Thus, in vivo, KP functions as an analgesic when administered systemically in injury-related pain models.

[5] = system: nerve injury pain; assay: Nerve constriction injury (PSNL) pain model, mechanical withdrawal; type: in vivo, mouse
Procedure: For pain-related behavior, mechanical allodynia was assessed with von Frey filaments (Ugo Basile, Italy). The mice were placed on a 5×5-mm wire-mesh grid floor in individual compartments to avoid visual stimulation and allowed to adapt for 0.5 h prior to the von Frey test. The von Frey filament was then applied to the middle of the plantar surface of the hind paw with 5 g force. The withdrawal responses following the hind paw stimulation were measured at least three times, and the mechanical allodynia, which was defined as an increase in the number of withdrawal responses to the stimulation, was compared.
Thus, in vivo, KP functions as an analgesic when administered systemically in injury-related pain models.
Next, whether the analgesic effects of KP were mediated centrally at the spinal cord level was assessed.
Mechanical withdrawal was measured thresholds after nerve constriction injury (PSNL) (FIG. 12B and FIG. 12C). […] Thus, δ-cat(S276A) spinal transgenesis via AAV9 is sufficient to evoke analgesia after nerve constriction injury, to lesser degree also with δ-cat(WT). Importantly, δ-cat(S276A) spinal transgenesis was accompanied by increased expression of KCC2 in the SCDH. […] Moreover, our discovery points toward a genetically-encoded approach that can be developed for translation into clinical use as an alternative or complement to KP-related small molecules.

O=C1Cc2c([nH]c3ccc(Br)cc23)-c2ccccc2N1 [kenpaullone, 9-bromo-7,12-dihydro-indolo [3,2-d] [1]benzazepin-6(5H)-one]
binding of KP to CDKs [1]: not identified
KCC2 protein expression in SCDH [2]: increases KCC2 protein expression
EGABA [3]: significant hyperpolarization
sensitized withdrawal thresholds to mechanical cues ([4]; KP 10 and 30 mg/kg, no significant difference between doses): significantly less sensitive
thermal pain threshold ([4]; both low and high dose KP): significantly less sensitive only at day 7
analgesic effect on sensitized mechanical withdrawal ([5]; 10 mg/kg i.p. daily after nerve constriction injury): less accentuated
analgesic effect on sensitized mechanical withdrawal ([5]; 30 mg/kg i.p. daily after nerve constriction injury): more pronounced
behavioral sensitization of juvenile mice ([5]; KP 30 mg/kg, PSNL, juvenile mice): almost complete behavioral recovery
mechanical allodynia ([5]; intrathecal 30 μg, nerve constriction injury): reduced mechanical allodynia
protracted analgesia ([5]; systemic KP, d7-14 after nerve constriction): almost complete elimination of sensitization
